Target: T1, recombinant autotaxin (Homo sapiens, UniProt Q13822)
T1 construct: made in house; host or cells: Hi5 insect cells (baculovirus)
Experiment: Autotaxin test (enzyme test), Amplex Red fluorescence with LPC substrate
Assay type: biochemical
Settings: autotaxin inhibition (enzyme test); for remaining activity at 10 µM: 10 μM compound, read-out: % Control at 10 μM
How it was run: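 Activity was inferred from H2O2 made from released choline, detected as Amplex Red/peroxidase fluorescence (485 nm excitation, 612 nm emission, kinetic read). Beforehand, Hi5-expressed autotaxin sat with compound 30 min at 22° C, then hydrolysed 75 μM final LPC for 90 min at 37° C, pH 8 Tris buffer.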

Structure (SMILES)	remaining activity at 10 µM [%]	IC50 [nM]
CC(C)(C)CC(=O)N1CCN2C(=O)c3cc(-c4ccccc4)ccc3NC(=O)C2C1 (centres unmarked) [Compound A131, 2-(3,3-Dimethylbutyryl)-7-phenyl-1,3,4,11a-tetrahydro-2H,10H-2,4a,10-triaza-dibenzo[a,d]cycloheptene-5,11-dione]	14	> 1000
CC(C)(C)CC(=O)N1CCN2C(=O)c3cc(-c4ccc(C#N)cc4)ccc3NC(=O)C2C1 (centres unmarked) [Compound A132, 4-[2-(3,3-Dimethylbutyryl)-5,11-dioxo-1,2,3,4,5,10,11,11a-octahydro-2,4a,10-triaza-dibenzo[a,d]cyclohepten-7-yl]benzonitrile]	84	–
CC(C)(C)CC(=O)N1CCN2C(=O)c3cc(OC(F)(F)F)ccc3NC(=O)C2C1 (centres unmarked) [Compound A133, 2-(3,3-Dimethylbutyryl)-7-trifluoromethoxy-1,3,4,11a-tetrahydro-2H,10H-2,4a,10-triaza-dibenzo[a,d]cycloheptene-5,11-dione]	27	> 1000
CN(C)CCN1C(=O)C2CN(C(=O)CC(C)(C)C)CCN2C(=O)c2cc(-c3ccc(Cl)cc3)ccc21 (centres unmarked) [Compound A134, 7-(4-Chlorophenyl)-10-(2-dimethylaminoethyl)-2-(3,3-dimethylbutyryl)-1,3,4,11a-tetrahydro-2H,10H-2,4a,10-triazadibenzo[a,d]cycloheptene-5,11-dione]	-19	> 1000
COCCN1C(=O)C2CN(C(=O)CC(C)(C)C)CCN2C(=O)c2cc(-c3ccc(Cl)cc3)ccc21 (centres unmarked) [Compound A135, 7-(4-Chlorophenyl)-2-(3,3-dimethylbutyryl)-10-(2-methoxyethyl)-1,3,4,11a-tetrahydro-2H,10H-2,4a,10-triazadibenzo[a,d]cycloheptene-5,11-dione]	-9	> 1000
O=C1Nc2ccc(-c3ccc(Cl)cc3)cc2C(=O)N2CCN(C(=O)C(F)(F)F)CC12 (centres unmarked) [Compound A136, 7-(4-Chlorophenyl)-2-(2,2,2-trifluoroacetyl)-1,3,4,11a-tetrahydro-2H,10H-2,4a,10-triazadibenzo-[a,d]cycloheptene-5,11-dione]	63	–
CC(C)(C)[C@H](N)C(=O)N1CCN2C(=O)c3cc(-c4ccc(Cl)cc4)ccc3NC(=O)C2C1 (stereo partly drawn) [Compound A137, 2-((S)-2-Amino-3,3-dimethylbutyryl)-7-(4-chloro-phenyl)-1,3,4,11a-tetrahydro-2H,10H-2,4a,10-triazadibenzo[a,d]cycloheptene-5,11-dione]	-18	> 1000
CO[C@H](C(=O)N1CCN2C(=O)c3cc(-c4ccc(Cl)cc4)ccc3NC(=O)C2C1)C(C)(C)C (stereo partly drawn) [Compound A138, 7-(4-Chlorophenyl)-2-((S)-2-methoxy-3,3-dimethyl-butyryl)-1,3,4,11a-tetrahydro-2H,10H-2,4a,10-triazadibenzo[a,d]cycloheptene-5,11-dione]	-21	100 to 1000
CC(C)(C)CC(=O)N1CCN2C(=O)c3cc(-c4ccc(Cl)cc4)cnc3NC(=O)C2C1 (centres unmarked) [Compound A139, 3-(4-Chlorophenyl)-8-(3,3-dimethylbutyryl)-7,8,9,9a-tetrahydro-6H,11H-1,5a,8,11-tetraazadibenzo-[a,d]cycloheptene-5,10-dione]	45	> 1000
C#Cc1ccc(-c2ccc3c(c2)C(=O)N2CCN(C(=O)CC(C)(C)C)CC2C(=O)N3)cc1 (centres unmarked) [Compound A140, 2-(3,3-Dimethylbutyryl)-7-(4-ethynylphenyl)-1,3,4,11a-tetrahydro-2H,10H-2,4a,10-triaza-dibenzo[a,d]cycloheptene-5,11-dione]	-10	> 1000
CC1(C)SCNC1C(=O)N1CCN2C(=O)c3cc(-c4ccc(Cl)cc4)ccc3NC(=O)C2C1 (centres unmarked) [Compound A141, 7-(4-Chlorophenyl)-2-(5,5-dimethylthiazolidine-4-carbonyl)-1,3,4,11a-tetrahydro-2H,10H-2,4a,10-triazadibenzo[a,d]cycloheptene-5,11-dione]	-21	100 to 1000
CC(C)(C)CC(=O)N1CCN2C(=O)c3cc(Br)ccc3NC(=O)C2C1 (centres unmarked) [Compound A142]	85	–
CC(C)(C)CC(=O)N1CCN2C(=O)c3cc(-c4ccc(Cl)cc4F)ccc3N(CCN3CCOCC3)C(=O)C2C1 (centres unmarked) [Compound A143]	3	100 to 1000
CN1CCN(C(=O)CN2C(=O)C3CN(C(=O)CC(C)(C)C)CCN3C(=O)c3cc(-c4ccc(Cl)cc4F)ccc32)CC1 (centres unmarked) [Compound A144]	11	> 1000
CC(C)(C)CC(=O)N1CCN2C(=O)c3cc(-c4ccc(Cl)cc4F)ccc3N(CC(N)=O)C(=O)C2C1 (centres unmarked) [Compound A145]	2	100 to 1000
CC(C)(C)CC(=O)N1CCN2C(=O)c3cc(-c4ccc(Cl)cc4F)ccc3N(CCC3CCNCC3)C(=O)C2C1 (centres unmarked) [Compound A146]	10	> 1000
CC(C)(C)CC(=O)N1CCN2C(=O)c3cc(-c4ccc(Cl)cc4F)ccc3N(CC3CCNCC3)C(=O)C2C1 (centres unmarked) [Compound A147]	62	> 1000
CC(C)(C)CC(=O)N1CCN2C(=O)c3cc(-c4ccc(Cl)cc4F)ccc3N(CCN3CCOCC3)C(=O)[C@H]2C1 [Compound A148]	10	> 1000
CN1CCN(C(=O)CN2C(=O)[C@H]3CN(C(=O)CC(C)(C)C)CCN3C(=O)c3cc(-c4ccc(Cl)cc4F)ccc32)CC1 [Compound A149]	15	> 1000
CC(C)(C)CC(=O)N1CCN2C(=O)c3cc(-c4ccc(Cl)cc4F)ccc3N(CC(N)=O)C(=O)[C@H]2C1 [Compound A150]	3	100 to 1000
CN(C)CCN1C(=O)[C@H]2CN(C(=O)CC(C)(C)C)CCN2C(=O)c2cc(-c3ccc(Cl)cc3F)ccc21 [Compound A151]	16	> 1000

Structure (SMILES)	remaining activity at 10 µM [%]	IC50 [nM]
CC(C)(C)CC(=O)N1CCN2C(=O)c3cc(-c4ccc(Cl)cc4F)ccc3N(CCO)C(=O)[C@H]2C1 [Compound A152]	3	100 to 1000
O=C([C@@H]1CCCN1C1CCNCC1)N1CCN2C(=O)c3cc(-c4ccc(Cl)cc4F)ccc3N(CCN3CCOCC3)C(=O)[C@H]2C1 [Compound A153]	21	> 1000
CN1CCN(C(=O)CN2C(=O)[C@H]3CN(C(=O)[C@@H]4CCCN4C4CCNCC4)CCN3C(=O)c3cc(-c4ccc(Cl)cc4F)ccc32)CC1 [Compound A154]	27	> 1000
NC(=O)CN1C(=O)[C@H]2CN(C(=O)[C@@H]3CCCN3C3CCNCC3)CCN2C(=O)c2cc(-c3ccc(Cl)cc3F)ccc21 [Compound A155]	10	100 to 1000
CN(C)CCN1C(=O)[C@H]2CN(C(=O)[C@@H]3CCCN3C3CCNCC3)CCN2C(=O)c2cc(-c3ccc(Cl)cc3F)ccc21 [Compound A156]	7	100 to 1000
CC(C)(C)CC(=O)N1CCN2C(=O)c3cc(-c4ccc(Cl)cc4F)ccc3N(CCC3CCNCC3)C(=O)[C@H]2C1 [Compound A157]	2	100 to 1000
O=C([C@@H]1CCCN1C1CCNCC1)N1CCN2C(=O)c3cc(-c4ccc(Cl)cc4F)ccc3N(CCC3CCNCC3)C(=O)[C@H]2C1 [Compound A158]	21	> 1000
O=C([C@@H]1CCCN1C1CCNCC1)N1CCN2C(=O)c3cc(-c4ccc(Cl)cc4F)ccc3N(CCO)C(=O)[C@H]2C1 [Compound A159]	16	> 1000
CC(C)(C)CC(=O)N1CCN2C(=O)c3cc(-c4ccc(Cl)cc4F)ccc3N(CCO)C(=O)[C@@H]2C1 [Compound A160]	2	100 to 1000
CC(C)(C)CC(=O)N1CCN2C(=O)c3cc(-c4ccc(Cl)cc4F)ccc3N(CCN3CCOCC3)C(=O)[C@@H]2C1 [Compound A161]	3	100 to 1000
CN1CCN(C(=O)CN2C(=O)[C@@H]3CN(C(=O)CC(C)(C)C)CCN3C(=O)c3cc(-c4ccc(Cl)cc4F)ccc32)CC1 [Compound A162]	30	> 1000
CN(C)CCN1C(=O)[C@@H]2CN(C(=O)CC(C)(C)C)CCN2C(=O)c2cc(-c3ccc(Cl)cc3F)ccc21 [Compound A163]	10	> 1000
O=C([C@@H]1CCCN1C1CCNCC1)N1CCN2C(=O)c3cc(-c4ccc(Cl)cc4F)ccc3N(CCC3CCNCC3)C(=O)[C@@H]2C1 [Compound A164]	12	> 1000
CC(C)(C)CC(=O)N1CCN2C(=O)c3cc(-c4ccc(Cl)cc4)ccc3N(CCO)C(=O)C2C1 (centres unmarked) [Compound A165]	-20	100 to 1000
CN1CCC(N2C(=O)C3CN(C(=O)CC(C)(C)C)CCN3C(=O)c3cc(-c4ccc(Cl)cc4F)ccc32)CC1 (centres unmarked) [Compound A166]	10	> 1000
O=C1Nc2ccc(-c3ccc(Cl)cc3)cc2C(=O)N2CCN(C(=O)Oc3ccccc3)CC12 (centres unmarked) [Compound A167]	26	> 1000
CC(C)(C)COC(=O)N1CCN2C(=O)c3cc(-c4ccc(Cl)cc4)ccc3NC(=O)C2C1 (centres unmarked) [Compound A168]	52	> 1000
CC(C)CS(=O)(=O)N1CCN2C(=O)c3cc(-c4ccc(Cl)cc4F)ccc3NC(=O)[C@H]2C1 [Compound A173]	1	100 to 1000
O=C1Nc2ccc(-c3ccc(Cl)cc3F)cc2C(=O)N2CCN(S(=O)(=O)CC3CCCCC3)C[C@H]12 [Compound A174]	21	100 to 1000
O=C1Nc2ccc(-c3ccc(Cl)cc3)cc2CN2CCN(C(=O)[C@@H]3CCCN3C3CCNCC3)CC12 (some centres unmarked) [Compound A176]	63	> 1000
CS(=O)(=O)N1CCN2C(=O)c3cc(-c4ccccc4F)ccc3NC(=O)[C@H]2C1 [Compound B1]	75	–

From patent publication US20120115852A1, “HETEROCYCLIC COMPOUNDS AS AUTOTAXIN INHIBITORS” (Merck Patent Gesellschaft Mit Beschrankter Haftung, priority 2009, published 2012)
